Where two headings read alike, the source gives them in different places.
Assays:
[1] = molecular target: T1, CLK2 (Homo sapiens, UniProt P49760); assay: CLK2 kinase activity assay (Z-lyte, Ser/Thr 6 peptide); type: biochemical; details: recombinant CLK2 kinase, ATP 60 μM; read-out: EC50
T1 construct: purchased Thermo Fisher (Life Technologies), Z'-LYTE Kinase Assay Kits
Procedure: All reactions were performed in duplicate.

[2] = test system: BT-549; assay: CellTiter-Glo Viability Assay, breast cancer; type: cell-based; details: Homo sapiens, 96 h; BT-549, breast cancer, four days; read-out: EC50
[3] = test system: CAMA1; assay: CellTiter-Glo Viability Assay, breast cancer; type: cell-based; details: Homo sapiens, CAMA-1, 96 h; CAMA1, breast cancer, four days; read-out: EC50
[4] = test system: DU4475; assay: CellTiter-Glo Viability Assay, breast cancer; type: cell-based; details: Homo sapiens, DU-4475, 96 h; DU4475, breast cancer, four days; read-out: EC50
[5] = test system: HCC1599; assay: CellTiter-Glo Viability Assay, breast cancer; type: cell-based; details: Homo sapiens, 96 h; HCC1599, breast cancer, four days; read-out: EC50
[6] = test system: MCF7; assay: CellTiter-Glo Viability Assay, breast cancer; type: cell-based; details: Homo sapiens, 96 h; MCF7, breast cancer, four days; read-out: EC50
[7] = test system: MDA-MB-231-Luc; assay: CellTiter-Glo Viability Assay, breast cancer; type: cell-based; details: Homo sapiens, 96 h; MDA-MB-231-Luc, breast cancer, four days; read-out: EC50
[8] = test system: T47D; assay: CellTiter-Glo Viability Assay, breast cancer; type: cell-based; details: Homo sapiens, 96 h, breast cancer, four days, read-out: EC50
[9] = test system: ZR-75-1; assay: CellTiter-Glo Viability Assay, breast cancer; type: cell-based; details: Homo sapiens, 96 h; ZR-75-1, breast cancer, four days; read-out: EC50
[10] = test system: all 50 cell lines; assay: CellTiter-Glo Viability Assay, average across all cell lines; type: cell-based; details: Homo sapiens; across all 50 cell lines; read-out: average EC50 for inhibition of cancer cell proliferation
Procedure, shortened: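 Proliferation of a multi-tissue human cancer line panel is assessed over four days at 37° C and 5% CO2, seeding 300-3,000 cells/well. Viability is quantified by CellTiter-Glo luminescence, and EC50 values are calculated.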

[11] = test system: colorectal cancer (6 cell lines); assay: CellTiter-Glo Viability Assay, colorectal cancer; type: cell-based; details: Homo sapiens, inhibition of cancer cell proliferation
[12] = test system: haematopoietic & lymphoid tumors (13 cell lines); assay: CellTiter-Glo Viability Assay, haematopoietic & lymphoid tumors; type: cell-based; details: Homo sapiens, inhibition of cancer cell proliferation
[13] = test system: liver cancer (3 cell lines); assay: CellTiter-Glo Viability Assay, liver cancer; type: cell-based; details: Homo sapiens, inhibition of cancer cell proliferation
[14] = test system: lung cancer (4 cell lines); assay: CellTiter-Glo Viability Assay, lung cancer; type: cell-based; details: Homo sapiens, inhibition of cancer cell proliferation
[15] = test system: ovarian cancer (4 cell lines); assay: CellTiter-Glo Viability Assay, ovarian cancer; type: cell-based; details: Homo sapiens, inhibition of cancer cell proliferation
[16] = test system: pancreatic cancer (8 cell lines); assay: CellTiter-Glo Viability Assay, pancreatic cancer; type: cell-based; details: Homo sapiens, inhibition of cancer cell proliferation
[17] = test system: prostate cancer (5 cell lines); assay: CellTiter-Glo Viability Assay, prostate cancer; type: cell-based; details: Homo sapiens
[18] = molecular target: CLK3 (Homo sapiens, UniProt P49761); assay: CLK3 kinase activity assay (Z-lyte, Ser/Thr 18 peptide)
Chain of CLK3 (P49761 whole entry): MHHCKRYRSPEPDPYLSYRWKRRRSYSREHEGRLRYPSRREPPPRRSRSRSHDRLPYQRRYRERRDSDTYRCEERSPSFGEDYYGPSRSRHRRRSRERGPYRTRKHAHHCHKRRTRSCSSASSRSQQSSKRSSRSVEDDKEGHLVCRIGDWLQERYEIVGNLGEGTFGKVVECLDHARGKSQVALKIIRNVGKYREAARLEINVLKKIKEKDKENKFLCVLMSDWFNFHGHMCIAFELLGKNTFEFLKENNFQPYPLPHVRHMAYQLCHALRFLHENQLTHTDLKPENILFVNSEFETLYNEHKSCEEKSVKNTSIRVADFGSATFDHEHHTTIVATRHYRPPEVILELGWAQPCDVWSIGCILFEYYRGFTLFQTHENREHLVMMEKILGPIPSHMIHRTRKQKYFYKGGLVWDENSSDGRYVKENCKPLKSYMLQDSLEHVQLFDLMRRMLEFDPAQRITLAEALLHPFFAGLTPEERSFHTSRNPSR

[19] = HCT-116, HCT116 cell line, read-out: Colorectal cancer, EC50 (μM) HCT116
[20] = HT-29, HT29 cell line, read-out: Colorectal cancer, EC50 (μM) HT29
[21] = SW-620, SW620 cell line, read-out: Colorectal cancer, EC50 (μM) SW620
[22] = DLD-1 cell line, read-out: Colorectal cancer, EC50 (μM) DLD-1
[23] = SW48 cell line, read-out: Colorectal cancer, EC50 (μM) SW48
[24] = SW480 cell line, read-out: Colorectal cancer, EC50 (μM) SW480
[25] = DND41, DND-41 cell line, read-out: Haematopoietic & Lymphoid tumors, EC50 (μM) DND-41
[26] = MV4-11, MV-4-11 cell line, read-out: Haematopoietic & Lymphoid tumors, EC50 (μM) MV-4-11
[27] = Rec1, REC-1 cell line, read-out: Haematopoietic & Lymphoid tumors, EC50 (μM) REC-1
[28] = SU-DHL-4, SUDHL4 cell line, read-out: Haematopoietic & Lymphoid tumors, EC50 (μM) SUDHL4
[29] = HL-60 cell line, read-out: Haematopoietic & Lymphoid tumors, EC50 (μM) HL-60
[30] = JM1 cell line, read-out: Haematopoietic & Lymphoid tumors, EC50 (μM) JM1
[31] = JURKAT, Clone E6-1 cell line, read-out: Haematopoietic & Lymphoid tumors, EC50 (μM) JURKAT, Clone E6-1
[32] = JeKo-1 cell line, read-out: Haematopoietic & Lymphoid tumors, EC50 (μM) JeKo-1
[33] = KASUMI-1 cell line, read-out: Haematopoietic & Lymphoid tumors, EC50 (μM) KASUMI-1
[34] = Loucy cell line, read-out: Haematopoietic & Lymphoid tumors, EC50 (μM) Loucy
[35] = MOLT-4 cell line, read-out: Haematopoietic & Lymphoid tumors, EC50 (μM) MOLT-4
[36] = TF-1 cell line, read-out: Haematopoietic & Lymphoid tumors, EC50 (μM) TF-1
[37] = TOLEDO cell line, read-out: Haematopoietic & Lymphoid tumors, EC50 (μM) TOLEDO
[38] = SNU-398, SNU398 cell line, read-out: Liver cancer, EC50 SNU398
[39] = HEPG2 cell line, read-out: Liver cancer, EC50 HEPG2
[40] = PLC/PRF/5 cell line, read-out: Liver cancer, EC50 PLC/PRF/5
[41] = A-427, A427 cell line, read-out: Lung cancer, EC50 (μM) A427
[42] = HCC78, HCC-78 cell line, read-out: Lung cancer, EC50 (μM) HCC-78
[43] = NCI-H460 cell line, read-out: Lung cancer, EC50 (μM) NCI-H460
[44] = NCI-H522 cell line, read-out: Lung cancer, EC50 (μM) NCI-H522
[45] = PA-1, PA1 cell line, read-out: Ovarian cancer, EC50 (μM) PA1
[46] = TOV112D, TOV-112D cell line, read-out: Ovarian cancer, EC50 (μM) TOV-112D
[47] = OV-90 cell line, read-out: Ovarian cancer, EC50 (μM) OV-90
[48] = OVCAR-3 cell line, read-out: Ovarian cancer, EC50 (μM) OVCAR-3
[49] = BXPC-3, BxPC3 cell line, read-out: Pancreatic cancer, EC50 BxPC3
[50] = CAPAN-1, Capan1 cell line, read-out: Pancreatic cancer, EC50 Capan1
[51] = Capan-2, Capan2 cell line, read-out: Pancreatic cancer, EC50 Capan2
[52] = MIA PaCa-2 cell line, read-out: Pancreatic cancer, EC50 MIA PaCa-2
[53] = PANC 05.04 cell line, read-out: Pancreatic cancer, EC50 PANC 05.04
[54] = PANC-1 cell line, read-out: Pancreatic cancer, EC50 PANC-1
[55] = UPAFII cell line, read-out: Pancreatic cancer, EC50 UPAFII
[56] = DU-145, read-out: Prostate cancer EC50 Du-145
[57] = PC-3, PC3 cell line, inhibition of cancer cell proliferation, read-out: Prostate cancer EC50 PC3
[58] = 22Rv1 cell line, inhibition of cancer cell proliferation, read-out: Prostate cancer EC50 22Rv1
[59] = LNCap clone FGC cell line, inhibition of cancer cell proliferation, read-out: Prostate cancer EC50 LNCap clone FGC
[60] = VCaP (Sigma) cell line, inhibition of cancer cell proliferation, read-out: Prostate cancer EC50 VCaP (Sigma)

T1 sequence (P49760 whole entry): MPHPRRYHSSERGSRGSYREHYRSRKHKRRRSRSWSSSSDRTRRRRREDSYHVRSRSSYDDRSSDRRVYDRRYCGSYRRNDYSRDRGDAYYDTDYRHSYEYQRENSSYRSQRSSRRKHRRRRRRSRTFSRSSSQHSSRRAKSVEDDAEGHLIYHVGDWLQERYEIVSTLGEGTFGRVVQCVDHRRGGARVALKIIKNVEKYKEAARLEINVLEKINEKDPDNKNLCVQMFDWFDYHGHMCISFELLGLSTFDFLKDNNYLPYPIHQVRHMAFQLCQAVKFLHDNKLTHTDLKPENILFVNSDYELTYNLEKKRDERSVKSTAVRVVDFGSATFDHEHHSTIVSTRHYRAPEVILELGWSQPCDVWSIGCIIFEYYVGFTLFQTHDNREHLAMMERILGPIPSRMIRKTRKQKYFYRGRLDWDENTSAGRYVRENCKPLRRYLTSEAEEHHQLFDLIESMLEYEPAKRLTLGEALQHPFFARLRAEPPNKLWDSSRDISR

Q: `CN1CCN(c2ccc(NC(=O)c3n[nH]c4ccc(-c5cncc(NC(=O)C6CC6)c5)cc34)cn2)CC1` [Compound 60] was tested. Which EC50 [1] did it give?
A: 0.0009 µM

Q: What about the EC50 [2] of the same molecule?
A: 0.734 µM

Q: What about the EC50 [3] of the same molecule?
A: 0.252 µM

Q: What about the EC50 [4] of the same molecule?
A: 0.169 µM

Q: What about the EC50 [5] of the same molecule?
A: 0.057 µM

Q: And the EC50 [6]?
A: 1.6 µM

Q: What about the EC50 [7] of the same molecule?
A: 0.557 µM

Q: And the EC50 [8]?
A: 0.296 µM

Q: What about the EC50 [9] of the same molecule?
A: 0.738 µM

Q: What about the EC50 [10] of the same molecule?
A: 1.07 µM

Q: And the EC50 [11, 19]?
A: 0.639 µM

Q: And the EC50 [11, 20]?
A: 2.52 µM

Q: What about the EC50 [11, 21] of the same molecule?
A: 0.455 µM

Q: And the EC50 [11, 22]?
A: 1.76 µM

Q: And the EC50 [11, 23]?
A: 0.174 µM

Q: And the EC50 [11, 24]?
A: 0.486 µM

Q: And the EC50 [12, 25]?
A: 0.154 µM

Q: What about the EC50 [12, 26] of the same molecule?
A: 0.088 µM

Q: And the EC50 [12, 27]?
A: 1.45 µM

Q: And the EC50 [12, 28]?
A: 0.641 µM

Q: What about the EC50 [12, 29] of the same molecule?
A: 3.24 µM

Q: And the EC50 [12, 30]?
A: 0.121 µM

Q: And the EC50 [12, 31]?
A: 1.42 µM

Q: What about the EC50 [12, 32] of the same molecule?
A: 0.039 µM

Q: What about the EC50 [12, 33] of the same molecule?
A: 0.685 µM

Q: What about the EC50 [12, 34] of the same molecule?
A: 0.207 µM

Q: And the EC50 [12, 35]?
A: 0.503 µM

Q: What about the EC50 [12, 36] of the same molecule?
A: 3.05 µM

Q: What about the EC50 [12, 37] of the same molecule?
A: 0.219 µM

Q: What about the EC50 [13, 38] of the same molecule?
A: 0.12 µM

Q: What about the EC50 [13, 39] of the same molecule?
A: 0.452 µM

Q: And the EC50 [13, 40]?
A: 2.03 µM

Q: And the EC50 [14, 41]?
A: 0.35 µM

Q: And the EC50 [14, 42]?
A: 1.69 µM

Q: And the EC50 [14, 43]?
A: 2.65 µM

Q: What about the EC50 [14, 44] of the same molecule?
A: 0.191 µM

Q: And the EC50 [15, 45]?
A: 0.405 µM

Q: What about the EC50 [15, 46] of the same molecule?
A: 0.475 µM

Q: And the EC50 [15, 47]?
A: 1.08 µM

Q: And the EC50 [15, 48]?
A: 0.116 µM

Q: What about the EC50 [16, 49] of the same molecule?
A: 2.68 µM

Q: What about the EC50 [16, 50] of the same molecule?
A: 1.9 µM

Q: What about the EC50 [16, 51] of the same molecule?
A: 1.28 µM

Q: What about the EC50 [16, 52] of the same molecule?
A: 0.331 µM

Q: What about the EC50 [16, 53] of the same molecule?
A: 1.17 µM

Q: And the EC50 [16, 54]?
A: 3.85 µM

Q: What about the EC50 [16, 55] of the same molecule?
A: 0.397 µM

Q: What about the EC50 [17, 56] of the same molecule?
A: 1.19 µM

Q: And the EC50 [17, 57]?
A: 0.831 µM

Q: And the EC50 [17, 58]?
A: 0.36 µM

Q: What about the EC50 [17, 59] of the same molecule?
A: 4.24 µM

Q: And the EC50 [17, 60]?
A: 3.47 µM

Q: And the EC50 [18]?
A: 0.0128 µM

Q: What does the source list for `CN1CCC(Oc2ccc(NC(=O)c3n[nH]c4cc(F)c(-c5cnn(C)c5)cc34)cc2)CC1` [Compound 61]?
A: EC50 [1]: 0.0006 µM; EC50 [2]: 0.786 µM; EC50 [3]: 3.85 µM; EC50 [4]: 0.411 µM; EC50 [5]: 0.367 µM; EC50 [6]: 3.39 µM; EC50 [7]: 2.04 µM; EC50 [8]: 3.55 µM; EC50 [9]: 1.84 µM; EC50 [10]: 1.22 µM; EC50 [11, 19]: 0.611 µM; EC50 [11, 20]: 1.7 µM; EC50 [11, 21]: 0.418 µM; EC50 [11, 22]: 0.644 µM; EC50 [11, 23]: 0.151 µM; EC50 [11, 24]: 0.769 µM; EC50 [12, 25]: 0.798 µM; EC50 [12, 26]: 0.057 µM; EC50 [12, 27]: 0.261 µM; EC50 [12, 28]: 0.779 µM; EC50 [12, 29]: 1.64 µM; EC50 [12, 30]: 0.237 µM; EC50 [12, 31]: 0.88 µM; EC50 [12, 32]: 0.201 µM; EC50 [12, 33]: 0.273 µM; EC50 [12, 34]: 0.581 µM; EC50 [12, 35]: 0.999 µM; EC50 [12, 36]: 1.31 µM; EC50 [12, 37]: 0.182 µM; EC50 [13, 38]: 0.45 µM; EC50 [13, 39]: 1.46 µM; EC50 [13, 40]: 3.16 µM; EC50 [14, 41]: 0.619 µM; EC50 [14, 42]: 3.02 µM; EC50 [14, 43]: 0.856 µM; EC50 [14, 44]: 0.57 µM; EC50 [15, 45]: 0.819 µM; EC50 [15, 46]: 0.533 µM; EC50 [15, 47]: 1.98 µM; EC50 [15, 48]: 0.568 µM; EC50 [16, 49]: 2.03 µM; EC50 [16, 50]: 2.09 µM; EC50 [16, 51]: 2.71 µM; EC50 [16, 52]: 0.438 µM; EC50 [16, 53]: 2.26 µM; EC50 [16, 54]: 2.16 µM; EC50 [16, 55]: 1.03 µM; EC50 [17, 56]: 1.26 µM; EC50 [17, 57]: 1.23 µM; EC50 [17, 58]: 0.672 µM; EC50 [17, 59]: 0.779 µM; EC50 [17, 60]: 1.48 µM; EC50 [18]: 0.0491 µM

— patent publication US20220062240A1, “METHODS OF TREATING CANCER USING A CLK INHIBITOR” (BioSplice Therapeutics, Inc., priority 2018, published 2022)
